Assay results as given in ChEMBL document CHEMBL1132128, “Novel halogenated sulfonamides inhibit the growth of multidrug resistant MCF-7/ADR cancer cells” (1999).

What was measured:
Type in all cases: functional
[1] = system: HeLa; experiment: Cytotoxic activity against human cervical adenocarcinoma-derived HeLa cell lines
[2] = system: MCF7; experiment: Cytotoxic activity against human breast tumor-derived MCF-7 cell lines
[3] = system: NCI/ADR-RES; experiment: Cytotoxic activity against MCF-7/ADR cell lines; conditions: Homo sapiens

In the case of `COc1ccc(NS(=O)(=O)c2c(F)c(F)cc(F)c2F)cc1`, the GI50 [1] was > 50000 nM, the GI50 [2] was > 50000 nM and the GI50 [3] was > 50000 nM.

In the case of `COc1ccc(NS(=O)(=O)c2ccc(F)c(F)c2F)cc1`, the GI50 [1] was > 50000 nM, the GI50 [2] was > 50000 nM and the GI50 [3] was > 50000 nM.

In the case of `COc1ccc(NS(=O)(=O)c2c(F)c(F)c(Br)c(F)c2F)cc1`, the GI50 [1] was 17000 nM, the GI50 [2] was 36000 nM and the GI50 [3] was 21000 nM.

With `COc1ccc(NS(=O)(=O)c2c(F)c(F)c(F)c(Br)c2F)cc1` the GI50 [1] was 220 nM, the GI50 [2] was 270 nM and the GI50 [3] was 190 nM.

In the case of `COc1ccc(NS(=O)(=O)c2c(F)cc(F)cc2F)cc1`, the GI50 [1] was > 50000 nM, the GI50 [2] was > 50000 nM and the GI50 [3] was > 50000 nM.

Molecule `COc1ccc(NS(=O)(=O)c2cc(F)c(F)c(F)c2F)cc1` has a GI50 [1] of 370 nM, a GI50 [2] of 120 nM and a GI50 [3] of 400 nM.

For `COc1ccc(NS(=O)(=O)c2c(F)cc(F)c(F)c2F)cc1`, the GI50 [1] was 5800 nM, the GI50 [2] was 4500 nM and the GI50 [3] was 4500 nM.

Molecule `COc1ccc(NS(=O)(=O)c2cc(F)c(F)c(F)c2)cc1` has a GI50 [1] of 3900 nM, a GI50 [2] of 2000 nM and a GI50 [3] of 3400 nM.

`COc1ccc(NS(=O)(=O)c2c(F)c(F)c(F)c(F)c2Br)cc1` showed a GI50 [1] of 160 nM, a GI50 [2] of 39 nM and a GI50 [3] of 160 nM.

Work on `COc1ccc(NS(=O)(=O)c2cc(F)c(Cl)c(F)c2F)cc1` yielded a GI50 [1] of 21000 nM, a GI50 [2] of 44000 nM and a GI50 [3] of 22000 nM.

`COc1ccc(NS(=O)(=O)c2c(F)c(F)c(F)c(F)c2F)cc1` showed a GI50 [1] of 99 nM, a GI50 [2] of 29 nM and a GI50 [3] of 58 nM.

In the case of `COc1ccc(NS(=O)(=O)c2c(F)c(Cl)c(F)c(Cl)c2F)cc1`, the GI50 [1] was 96 nM, the GI50 [2] was 37 nM and the GI50 [3] was 58 nM.

In the case of `CC(=O)O[C@H]1C(=O)[C@@]2(C)[C@H]([C@H](OC(=O)c3ccccc3)[C@]3(O)C[C@H](OC(=O)[C@H](O)[C@@H](NC(=O)c4ccccc4)c4ccccc4)C(C)=C1C3(C)C)[C@]1(OC(C)=O)CO[C@@H]1C[C@@H]2O` [PACLITAXEL], the GI50 [1] was 7 nM, the GI50 [2] was 1.1 nM and the GI50 [3] was > 50000 nM.
